Experiments:
[1] = target: T1, PGD₂ receptor on the human platelet (Homo sapiens, UniProt Q13258); test: Inhibition of ADP-induced aggregation in washed human platelets: antagonism of PGD₂ and compound A, Schild analysis; type: cell-based
T1 construct: endogenous in cells; host or cells: washed human platelets
T1 sequence (Q13258 1-359): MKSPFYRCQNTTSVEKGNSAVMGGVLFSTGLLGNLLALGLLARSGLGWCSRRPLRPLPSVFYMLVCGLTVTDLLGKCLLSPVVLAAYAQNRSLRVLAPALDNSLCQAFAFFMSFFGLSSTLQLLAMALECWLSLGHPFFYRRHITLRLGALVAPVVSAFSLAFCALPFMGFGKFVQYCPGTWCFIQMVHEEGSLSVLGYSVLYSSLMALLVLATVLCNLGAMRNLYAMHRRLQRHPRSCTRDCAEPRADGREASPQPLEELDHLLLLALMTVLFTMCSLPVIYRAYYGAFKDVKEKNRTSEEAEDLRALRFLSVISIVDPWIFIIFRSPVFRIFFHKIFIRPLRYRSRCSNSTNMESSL
Method: Washed platelet suspensions were prepared according to a modified version of the method of Vargas et al (Prostaglandins (1982) 23, 929). The suspension was then stored at 4°C for 2 hours and, before use, the following additions were made: Ca⁺⁺ʼ […], indomethacin, 5mcg ml⁻¹; and fibrinogen, 400 mcg ml⁻¹. Aggregation responses were measured using 0.5ml aliquots of the suspension maintained at 37°C and stirred with a metal bar at 900 r.p.m. in 300 BD-S Payton dual channel aggregometers and recorded on Gould BS 272 pen recorders.
Inhibition of platelet aggregation by PGD₂ and compound A were studied as follows. The prostaglandin receptor agonists were incubated in the platelet suspension for 6 minutes prior to adding ADP (5 × 10⁻⁵M). The reproducibility of the ADP-induced aggregation response was checked at intervals throughout the experiment. Antagonists were added 2 minutes before the agonist. Responses were expressed as percent inhibitions of the standard ADP-induced aggregation.
(§1) Measurement of antagonist affinity (pKB) was by Schild analysis.

[2] = system: rabbit jugular vein; test: Rabbit jugular vein relaxation: antagonism of PGD₂ and compound A; settings: potency compared with the antagonism in platelet aggregation
Method: Vascular smooth muscle relaxation in response to PGD₂ and compound A was measured as changes in isometric force. Isolated ring segments of rabbit jugular vein suspended in Kreb's buffer, gassed with 95% O₂/5% CO₂ and maintained at 37°C, were treated with: indomethacin, 1 µg ml⁻¹, and the stable thromboxane receptor antagonist BM13177 (Patscheke et al, Biomed. Biochem. Acta (1984) 43, 5321), 30µM. The experiments followed a paired curve design.
Initially, the jugular vein ring segments were subjected to a force of 0.75g, then allowed to stabilize for a period of 60 minutes during which time the preparations were washed three times. Subsequently histamine (10⁻⁶M) was added to produce tone. After establishing a stable contraction, relaxation/concentration effect curves were obtained using prostaglandin receptor agonists. Responses were expressed as per cent relaxations of the histamine-induced force. The preparations were then washed thoroughly and allowed to re-stabilise. The antagonists were then incubated for 60 minutes prior to constriction with histamine (10⁻⁶M), followed by a second determination of the prostaglandin agonist concentration effect curve.
as §1

[3] = system: prostaglandin receptors other than DP; test: Actions at other prostaglandin receptors (selectivity); settings: actions not observed up to this multiple

- Kb ([1]; antagonist affinity by Schild analysis, shifts of anti-aggregatory concentration effect curves for PGD₂ and compound A, human washed platelets): 0.55 nM
- Schild plot slope ([1]; anti-aggregatory concentration effect curves for PGD₂ and compound A, human washed platelets): unity
- behaviour at the PGD₂ receptor on the human platelet ([1]; human washed platelet assay, agonists PGD₂ and compound A): simple competitive antagonist
- concentrations without actions at prostaglandin receptors other than DP, relative to that required for DP receptor affinity [3]: > 1000 ×
SMILES: O=C(O)CCCCCCC1C(=O)N(Cc2ccccc2)C(=O)N1NCC(O)C1CCCCC1 (centres unmarked) [Example 3, 3-Benzyl-5-(6-carboxylhexyl)-1-(2-hydroxy-2-cyclohexylethylamino) hydantoin]
- antagonism of the relaxation effects of PGD₂ and compound A [2]: antagonised with similar potencies

From patent EP0284202A1, “Substituted hydantoin compounds” (THE WELLCOME FOUNDATION LIMITED, priority 1987, dated 1988)
